Reference: ChEMBL document CHEMBL2073959, “The human bile salt export pump: characterization of substrate specificity and identification of inhibitors” (Gastroenterology, 2002)

Tests used:
Bile salt export pump [1] = target: T1, Bile salt export pump (Homo sapiens, UniProt O95342); assay: TP_TRANSPORTER: competitive inhibition of Taurocholate uptake in membrane vesicles prepared from High Five cells infected with the ABCB11 baculovirus; type: functional, cell membranes, BTI-TN-5B1-4, Membrane vesicle
Bile salt export pump [2] = target: T1, Bile salt export pump; assay: TP_TRANSPORTER: inhibition of Taurocholate uptake(Rifampicin SV 30uM, 50 % of control) in membrane vesicles prepared from High Five cells infected with the ABCB11 baculovirus; type: functional, cell membranes, BTI-TN-5B1-4, Membrane vesicle

T1 sequence (O95342 whole entry): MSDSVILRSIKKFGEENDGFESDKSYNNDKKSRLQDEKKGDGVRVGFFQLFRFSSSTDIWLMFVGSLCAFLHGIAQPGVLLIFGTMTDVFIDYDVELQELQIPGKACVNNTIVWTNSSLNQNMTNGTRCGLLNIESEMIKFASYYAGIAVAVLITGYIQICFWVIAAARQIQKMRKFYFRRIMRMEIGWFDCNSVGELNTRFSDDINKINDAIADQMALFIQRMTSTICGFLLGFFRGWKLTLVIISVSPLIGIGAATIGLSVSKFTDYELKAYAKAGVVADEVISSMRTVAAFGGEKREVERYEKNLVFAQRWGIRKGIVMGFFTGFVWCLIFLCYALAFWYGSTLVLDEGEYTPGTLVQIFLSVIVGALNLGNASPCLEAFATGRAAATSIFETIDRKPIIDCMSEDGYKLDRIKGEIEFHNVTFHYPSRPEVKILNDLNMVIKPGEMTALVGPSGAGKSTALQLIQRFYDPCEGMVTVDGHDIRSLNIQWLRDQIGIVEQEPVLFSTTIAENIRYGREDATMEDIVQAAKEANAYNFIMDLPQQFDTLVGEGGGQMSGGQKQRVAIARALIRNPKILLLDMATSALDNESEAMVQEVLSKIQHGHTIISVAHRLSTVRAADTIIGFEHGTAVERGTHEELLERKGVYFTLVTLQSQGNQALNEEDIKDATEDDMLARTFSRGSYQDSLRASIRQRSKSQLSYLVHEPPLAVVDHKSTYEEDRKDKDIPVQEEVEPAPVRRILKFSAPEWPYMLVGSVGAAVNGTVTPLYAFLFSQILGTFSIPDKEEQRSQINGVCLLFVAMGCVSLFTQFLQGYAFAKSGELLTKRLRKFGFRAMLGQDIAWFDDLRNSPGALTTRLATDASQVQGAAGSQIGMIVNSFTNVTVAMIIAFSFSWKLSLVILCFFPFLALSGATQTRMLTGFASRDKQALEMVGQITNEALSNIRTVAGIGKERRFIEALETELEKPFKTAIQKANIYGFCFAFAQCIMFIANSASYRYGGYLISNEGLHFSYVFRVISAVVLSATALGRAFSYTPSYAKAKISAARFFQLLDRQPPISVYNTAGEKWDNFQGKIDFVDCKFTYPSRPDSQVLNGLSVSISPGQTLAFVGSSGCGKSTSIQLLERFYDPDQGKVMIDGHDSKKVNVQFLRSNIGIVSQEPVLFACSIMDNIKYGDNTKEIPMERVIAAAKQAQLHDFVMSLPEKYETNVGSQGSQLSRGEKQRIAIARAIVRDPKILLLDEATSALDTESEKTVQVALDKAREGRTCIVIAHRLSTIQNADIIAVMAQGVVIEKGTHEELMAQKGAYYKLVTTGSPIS

| Structure (SMILES) | Ki (Bile salt export pump [1]) [µM] | Ki (Bile salt export pump [2]) [µM] |
| --- | --- | --- |
| C[C@H](CCC(=O)NCC(=O)O)[C@H]1CC[C@H]2[C@@H]3[C@H](O)C[C@@H]4C[C@H](O)CC[C@]4(C)[C@H]3CC[C@]12C [GLYCOCHENODEOXYCHOLATE] | 7 | – |
| C[C@H](CCC(=O)NCC(=O)O)[C@H]1CC[C@H]2[C@@H]3[C@H](O)C[C@@H]4C[C@H](O)CC[C@]4(C)[C@H]3C[C@H](O)[C@]12C [GLYCOCHOLIC ACID] | 11 | – |
| CO[C@H]1/C=C/O[C@@]2(C)Oc3c(C)c(O)c4c(O)c(cc(O)c4c3C2=O)NC(=O)/C(C)=C\C=C\[C@H](C)[C@H](O)[C@@H](C)[C@@H](O)[C@@H](C)[C@H](OC(C)=O)[C@@H]1C [RIFAMYCIN] | – | 31 |
| C[C@H](CCC(=O)NCCS(=O)(=O)O)[C@H]1CC[C@H]2[C@@H]3[C@H](O)C[C@@H]4C[C@H](O)CC[C@]4(C)[C@H]3CC[C@]12C [TAUROCHENODEOXYCHOLATE] | 28 | – |
